Tested on: polyclonal serum raised against the native antigen
Assay: Reaction of peptide with polyclonal serum raised against the native antigen
Type: binding, rabbits
Conditions: rabbit serum

Sequence: ELVALSNSITAQQMAMMAZASPA [Peptide (b), Tryptic peptide of the H. contortus antigen purified by HPLC]
- reaction with polyclonal serum raised against the native antigen: reacts strongly
